Values joined by “and” are separate entries in the source; they are usually repeats but may differ in a detail not shown here. Equal values may be shown once.
Tests used:
Liposome [1] = assay: Mannose concentrations required for 50% turbidity reduction on the Surface of Liposomes; assay type: functional, subcellular
Liposome [2] = assay: Mannose concentrations required for 50% turbidity reduction n the Surface of Liposomes; assay type: functional, subcellular

For `CCCCCCCC/C=C\CCCCCCCCOCC(COCCOCCOCCOCCNC(=O)CCS[C@H]1OC(CO)[C@@H](O)[C@@H](O)C1O)OCCCCCCCC/C=C\CCCCCCCC` (some centres not stated), the IC50 (Liposome [1]) was 2 mM and 4 mM and 5 mM.

With `CCCCCCCC/C=C\CCCCCCCCOCC(COCCOCCOCCOCCNC(=O)C(CCCCNC(=O)C(CCCCNC(=O)COCCOCCS[C@@H]1O[C@H](CO)[C@@H](O)[C@@H](O)[C@@H]1O)NC(=O)COCCOCCS[C@@H]1O[C@H](CO)[C@@H](O)[C@@H](O)[C@@H]1O)NC(=O)C(CCCCNC(=O)COCCOCCS[C@@H]1O[C@H](CO)[C@@H](O)[C@@H](O)[C@@H]1O)NC(=O)COCCOCCS[C@@H]1O[C@H](CO)[C@@H](O)[C@@H](O)[C@@H]1O)OCCCCCCCC/C=C\CCCCCCCC` (some centres not stated) the IC50 (Liposome [2]) was 20 mM and 30 mM and 50 mM.
